Measurements reported in PubChem BioAssay AID248 (DTP/NCI, 2004).
Several values for one entry are separate records, joined by “and”; a condition that tells them apart may be missing. Equal values may be shown once. Inconclusive results and toxic doses are left out. Rule as the data show it: active = T/C of 150% or more; inactive = T/C below 125%.

Test system: L1210 leukemia ip in BDF1 mice, survival T/C
Assay: NCI In Vivo Anticancer Drug Screen. Data for tumor model L1210 Leukemia (intraperitoneal) in B6D2F1 (BDF1) mice
Conditions: endpoint: mean survival time, higher = longer survival
Procedure, shortened: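 Each compound was tested against a transplantable tumor grown in mice. The endpoint was survival, with treated animals benchmarked against vehicle controls as a simple ratio.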

[1] = dose: 100.0 mg/kg/injection, schedule: Q01DX001 (ip), vehicle: saline
[2] = dose: 200.0 mg/kg/injection, schedule: Q01DX001 (ip), vehicle: saline
[3] = dose: 400.0 mg/kg/injection, schedule: Q01DX001 (ip), vehicle: saline

Measured: T/C

CC(C)(C)S(=O)(=O)CCCCS(=O)(=O)C(C)(C)C
inactive: [1] 102 % of control | dose: 100.0 mg/kg/injection, schedule: Q01DX009 (ip), vehicle: saline 104 % of control | dose: 100.0 mg/kg/injection, schedule: Q04DX003 (ip), vehicle: acetone 100 % of control | [2] 94 % of control | dose: 200.0 mg/kg/injection, schedule: Q01DX009 (ip), vehicle: saline 96 % of control | dose: 200.0 mg/kg/injection, schedule: Q04DX003 (ip), vehicle: acetone 96 % of control | [3] 88 % of control | dose: 400.0 mg/kg/injection, schedule: Q01DX009 (ip), vehicle: saline 105 % of control | dose: 400.0 mg/kg/injection, schedule: Q04DX003 (ip), vehicle: acetone 89 % of control

C=CCc1cc(C)cc([N+](=O)[O-])c1OBr
inactive: dose: 100.0 mg/kg/injection, schedule: Q01DX001 (ip), vehicle: saline with Tween-80 89 % of control | dose: 100.0 mg/kg/injection, schedule: Q01DX009 (ip), vehicle: saline with Tween-80 97 % of control | dose: 200.0 mg/kg/injection, schedule: Q01DX001 (ip), vehicle: saline with Tween-80 88 % of control | dose: 200.0 mg/kg/injection, schedule: Q01DX009 (ip), vehicle: saline with Tween-80 98 % of control | dose: 400.0 mg/kg/injection, schedule: Q01DX001 (ip), vehicle: saline with Tween-80 93 % of control | dose: 400.0 mg/kg/injection, schedule: Q01DX009 (ip), vehicle: saline with Tween-80 93 % of control

Nc1nc(F)nc2c1ncn2C1OC(CO)C(O)C1O (stereo unspecified)
active: dose: 65.0 mg/kg/injection, schedule: Q03HX024 (ip), vehicle: saline with Tween-80 205 % of control | dose: 65.0 mg/kg/injection, schedule: Q06HX012 (ip), vehicle: saline with Tween-80 160 % of control | dose: 80.0 mg/kg/injection, schedule: Q03HX024 (ip), vehicle: saline with Tween-80 291 % of control | dose: 80.0 mg/kg/injection, schedule: Q06HX012 (ip), vehicle: saline with Tween-80 177 % of control | dose: 90.0 mg/kg/injection, schedule: Q03HX024 (ip), vehicle: saline with Tween-80 276 % of control | dose: 100.0 mg/kg/injection, schedule: Q03HX024 (ip), vehicle: saline with Tween-80 301 % of control and 357 % of control (2×) | dose: 100.0 mg/kg/injection, schedule: Q03HX024 (oral), vehicle: saline with Tween-80 160 % of control | dose: 110.0 mg/kg/injection, schedule: Q03HX024 (ip), vehicle: saline with Tween-80 157 % of control | dose: 125.0 mg/kg/injection, schedule: Q06HX012 (ip), vehicle: saline with Tween-80 163 % of control | dose: 150.0 mg/kg/injection, schedule: Q03HX024 (oral), vehicle: saline with Tween-80 166 % of control | dose: 150.0 mg/kg/injection, schedule: Q06HX012 (ip), vehicle: saline with Tween-80 181 % of control and 326 % of control | dose: 200.0 mg/kg/injection, schedule: Q06HX012 (ip), vehicle: saline with Tween-80 219 % of control | dose: 300.0 mg/kg/injection, schedule: Q12HX006 (ip), vehicle: saline with Tween-80 204 % of control and 225 % of control | dose: 350.0 mg/kg/injection, schedule: Q12HX006 (ip), vehicle: saline with Tween-80 205 % of control | dose: 400.0 mg/kg/injection, schedule: Q12HX006 (ip), vehicle: saline with Tween-80 207 % of control and 288 % of control | dose: 450.0 mg/kg/injection, schedule: Q12HX006 (ip), vehicle: saline with Tween-80 228 % of control | dose: 600.0 mg/kg/injection, schedule: Q04DX003 (ip), vehicle: saline with Tween-80 186 % of control | dose: 800.0 mg/kg/injection, schedule: Q04DX003 (ip), vehicle: saline with Tween-80 200 % of control | dose: 1000.0 mg/kg/injection, schedule: Q04DX003 (ip), vehicle: saline with Tween-80 205 % of control
inactive: dose: 0.75 mg/kg/injection, schedule: Q01DX Z (ip), vehicle: saline 106 % of control | dose: 1.0 mg/kg/injection, schedule: Q01DX015 (ip), vehicle: saline 104 % of control | dose: 1.5 mg/kg/injection, schedule: Q01DX Z (ip), vehicle: saline 112 % of control | dose: 1.6 mg/kg/injection, schedule: Q01DX015 (ip), vehicle: saline 98 % of control | dose: 2.4 mg/kg/injection, schedule: Q01DX015 (ip), vehicle: saline 96 % of control | dose: 3.0 mg/kg/injection, schedule: Q01DX Z (ip), vehicle: saline 104 % of control | dose: 3.6 mg/kg/injection, schedule: Q01DX015 (ip), vehicle: saline 96 % of control | dose: 5.4 mg/kg/injection, schedule: Q01DX015 (ip), vehicle: saline 87 % of control | dose: 6.0 mg/kg/injection, schedule: Q01DX Z (ip), vehicle: saline 113 % of control | [1] 105 % of control | dose: 125.0 mg/kg/injection, schedule: Q03HX024 (ip), vehicle: saline with Tween-80 100 % of control | dose: 150.0 mg/kg/injection, schedule: Q03HX024 (ip), vehicle: saline with Tween-80 83 % of control | [2] 107 % of control | dose: 250.0 mg/kg/injection, schedule: Q06HX012 (ip), vehicle: saline with Tween-80 122 % of control | dose: 300.0 mg/kg/injection, schedule: Q01DX009 (ip), vehicle: saline with Tween-80 86 % of control | [3] 122 % of control | dose: 750.0 mg/kg/injection, schedule: Q12HX006 (ip), vehicle: saline with Tween-80 106 % of control
